Broadly, the IC50 is the concentration that inhibits the measured activity by half.

For experiment [1], the target named is T1, USP30 (Homo sapiens, UniProt Q70CQ3).
T1 construct: We next determined cellular engagement of endogenous USP30 with IMP-2587 or IMP-2586; endogenous in cells; host or cells: HEK293T
T1 sequence (Q70CQ3 1-517): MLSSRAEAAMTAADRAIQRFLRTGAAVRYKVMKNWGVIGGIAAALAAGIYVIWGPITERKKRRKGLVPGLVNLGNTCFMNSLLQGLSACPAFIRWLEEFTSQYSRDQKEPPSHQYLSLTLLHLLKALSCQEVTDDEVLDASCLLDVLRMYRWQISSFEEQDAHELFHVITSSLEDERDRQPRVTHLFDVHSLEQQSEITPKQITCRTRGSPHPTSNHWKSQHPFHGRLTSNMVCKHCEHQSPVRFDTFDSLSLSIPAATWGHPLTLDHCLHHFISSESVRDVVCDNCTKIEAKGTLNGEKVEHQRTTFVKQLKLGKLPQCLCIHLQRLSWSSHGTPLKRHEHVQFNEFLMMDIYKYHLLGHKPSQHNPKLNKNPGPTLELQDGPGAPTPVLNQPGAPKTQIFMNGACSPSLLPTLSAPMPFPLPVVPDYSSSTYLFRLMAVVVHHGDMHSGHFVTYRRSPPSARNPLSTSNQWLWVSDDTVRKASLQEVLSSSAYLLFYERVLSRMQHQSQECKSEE
The experiment in a line: Direct target engagement in HEK293T cells: CuAAC ligation and in-gel fluorescence. To be noted: for probe concentration for detection of USP30 activity in intact cells: following 1 hour incubation. The class given is cell-based. As to the method: We next determined cellular engagement of endogenous USP30 with IMP-2587 or IMP-2586. […] In-cell concentration-dependent competition by IMP-2587 and IMP-2586 for USP30 were confirmed below 100 nM probe (Fig. 2b and c), whilst engagement of an exemplar unrelated DUB, UCHL1, occurred only at a much higher concentration (30 000 nM). We hypothesise that incomplete modification of USP30 by HA-Ub-VME is likely due to limited retention of USP30 activity in cell lysates, which have likely had the USP30 transmembrane domain compromised, highlighting the potential utility of a small molecule USP30 ABP applicable directly in intact cells. Direct USP30 target engagement by IMP-2587 and IMP-2586 was confirmed in HEK293T cells following 1 h probe treatment followed by cell lysis and CuAAC bio-orthogonal ligation to capture reagent azido-TAMRA-biotin (AzTB) for IMP-2587 or alkyne-TAMRA-biotin for IMP-2586 (Fig. 3a).[27] […] This unspecific background labelling is presumably due to the previously reported higher off-target CuAAC reactivity of an alkyne-bearing capture reagent, applied here due to incorporation of an azide tag in IMP-2586.[28] Moreover, the labelling of USP30 was further confirmed by biotin pulldown and immunoblotting. […]
d) Live cell probe incubation, lysate click chemistry and precipitation 6-well HEK293T cells were incubated with media containing compounds ABP 2 and ABP 4 at indicated concentrations for 1 h at 37 °C. The cells were washed with PBS and lysed with lysis buffer (50 μL (1% (v/v) Triton X-100, 0.1% (w/v) sodium dodecyl sulfate (SDS), EDTA-free complete protease inhibitor cocktail (1×, Roche) in PBS on ice for 10 min. The lysates were scraped and transferred to corresponding Lo-Bind Eppendorfs. Each lysate was sonicated for 1 minute, and the samples centrifuges at 5,000 x g at 4 °C for 5 minutes to pellet insoluble cellular debris. The supernatant was collected, and protein concentration was determined using the DC Protein Assay (Bio-Rad) as per manufacturer’s instructions, and normalised to lowest concentrated sample (e.g. 1 mg/mL, using lysis buffer). The following “click mixture” was prepared separately, preparing 6 μL for every 100 μL of […]
Capture reagent (AzRB/AzT for ABP 2, YnT/YnB for ABP 4 10 mM in DMSO, 1 vol; final concentration […]
The lysate samples (10-20 μg) were mixed with 4× Laemmli sample loading buffer (250 mM Tris -HCl pH 6.8, 30% (v/v) glycerol, 10% (w/v) SDS, 0.05% (w/v) bromophenol blue) supplemented with 20% v/v β-mercaptoethanol (BME) and boiled for 10 min at 95 °C. […] Gel were imaged on a Typhoon imager (GE Healthcare; λEx 532 nm, λEm 575 nm for TAMRA. For protein loading quantification, gels were stained with Coomassie blue staining solution overnight, rinsed with water and imaged on an ImageQuant™ […]

Experiment [2] deals with USP30. Particulars: following 30 minutes incubation; read-out: reported IC50 against USP30; cited from earlier work.
Where [3] appears, read: HEK293T, 1 h probe treatment, CuAAC to AzTB.

Turning to `N#CN1CC[C@@H](NC(=O)c2cc(-c3ccccc3Oc3ccc(N=[N+]=[N-])cc3)n[nH]2)C1` [IMP-2586], at USP30 [1], the “probe concentration for detection of USP30 activity in intact cells” value lay within 3 to 10 nM. For `C#Cc1cccc(-c2cc(NC(=O)CC3CCN(C#N)C3)on2)c1` (stereo not drawn) [IMP-2587], on USP30 [1] (setting [3]), the “lowest probe concentration showing major band at ca. 60 kDa (in-gel fluorescence)” value was determined as 3 nM and the “probe concentration above which additional bands are labelled (in-gel fluorescence)” value is “above 30 nM”. On USP30 [1], the “probe concentration for detection of USP30 activity in intact cells” value was 3 to 10 nM. As for `N#CN1CC[C@H](CC(=O)Nc2cc(-c3cccc(Cl)c3)no2)C1` [compound 1, reference compound], the concentration for half-maximal inhibition (IC50) with USP30 [2] was 1 to 10 nM. As to `N#CN1CC[C@@H](NC(=O)c2cc(-c3ccccc3Oc3ccccc3)n[nH]2)C1` [compound 3, reference compound], the half-inhibitory concentration (IC50) in the experiment with USP30 [2] was 1.5 nM.

Values taken from article PMC11078216, “Discovery of potent and selective activity-based probes (ABPs) for the deubiquitinating enzyme USP30” (RSC Chemical Biology, 2024).
